Broadly, the IC50 is the concentration that inhibits the measured activity by half.

Here are results for 27 compounds from patent US8674113B2, “Compounds” (Boehringer Ingelheim International GmbH, priority 2010, dated 2014).

Where only a bound is given, the exact number is not on record here.

The target of assay [1] is recombinant human mPGES-1 (Homo sapiens (Human), UniProt O14684). Briefly: mPGES-1 enzyme assay (HTRF detection of PGE2). The assay is classed as biochemical. To be noted: recombinant human mPGES-1 microsomes, PGH2 2 μM, 60 seconds; read-out: mPGES-1 inhibitory effect IC50 in the enzyme assay. As to the method: Microsomes from Rosetta E. coli bacteria expressing recombinant human mPGES-1 can be derived as described below:
Inoculate 5 ml LB with Ampicilin (50 μg/ml) and Chloramphenicol (34 μg/ml) with bacteria from freeze culture. Incubate 8 h at 37° C. with 200 rpm. Thereafter, inoculate 500-1000 ml LB containing Amp and Chloro with the 5 ml on culture and grow to OD640 of 0.8-1.0. Chill the culture to +4° C. before induction. Induce the culture with IPTG at a final concentration of 400 μM. Express the protein at room temp 18-23° C. with 200 rpm shaking over night.
The following steps can be performed on the following day: • 1. Spin down the cells in 250 ml centrifuge flasks for 15 min at 7000 rpm (Beckmann Coulte Avanti J-E centrifuge) • 2. Dissolve the pellet from 250 ml culture in 12.5 ml homogenization buffer • 3. (15 mM Tris-HCL pH8, 1 mM EDTA pH8, […], 2.5 mM GSH, 1 Tablet Protease inhibitor per 50 ml buffer) • 4. Disintegrate the cells by sonication, 5×10 seconds at 48% amplitude of a 750 W sonifier • 5. Add 2.5 ml MgCl2 (100 mM) and DNase 12.5 μl (0.8 mg/ml) and incubate on ice for 30 min • 6. Spin down the bacteria debris and save the supernatant, 7000 rpm for 15 min • 7. Isolate the protein containing membranes in the supernatant by ultracentrifugation 120000×g for 2 hour at 4° C. (Sorvall T880 rotor). • 8. Discard the supernatant and dissolve the pellet in 20 mM Potassium phosphate buffer pH7.4 (KH2PO4 and K2HPO4) buffer by sonication (5×10 s, 30% of a 50 W sonifier) and aliquot the enzyme and store aliquots at −80° C.
Before each experiment is performed an aliquot of the enzyme is thawed and it can then be dissolved in 0.1 M Potassium phosphate buffer pH7.4 (KH2PO4 and K2HPO4) buffer containing 2.5 mM GSH.
The aim of this assay is to determine the affinity of a test compound for the mPGES-1 enzyme.
47 μl of recombinant human mPGES-1 (˜0.5 μg protein/well) containing microsomal suspension in a buffer containing GSH, (2.5 mmol/L L-Glutathione reduced, dissolved in 0.1 mol/L Phosphat Buffer pH 7.4) is dispensed in a 384-well plate and thereafter 1 μl of the test compound(s) is/are added and incubated for 25 minutes at room temperature. The enzyme reaction is started by the addition of 2 ul PGH2 (final conc 2 μM) disolved in water-free Diglyme. After 60 seconds the reaction is terminated by addition of a stop solution containing FeCl2 (10 μL 0.074 mol/l FeCl2). The samples are diluted between 1:25 in PBS (Phosphate Buffered Saline). 10 μl of the diluted samples are transferred to 384-well low volume plate. In order to quantify the amount of PGE2 that has been formed, a homogenous time resolved fluorescent (HTRF) detecting of PGE2 has been performed using a commercially available kit from Cisbio according to the manufactures recommendation. This HTRF-based assay has been described in detail (see: Goedken et al., J Biomol Screen, 2008, 13(7), 619-625). Briefly, the diluted samples are mixed with 5 μl PGE2-d2 conjugate and 5 μl anti-PGE2 cryptate conjugate. After an incubation period of the plates over night, the fluorescence is measured by the use of an appropriate microplate reader.
The fluorescence of Europium cryptate (maxex=307 nm, maxem=620 nm) and d2-PGE2 (maxex=620 nm, maxem=665 nm) are measured.
The extent of the specific HTRF is measured as a ratio of the emission intensity at 665 nm vs. that at 620 nm at an excitation puts of 320 nm. The quantification plate contains also wells with different concentrations of PGE2 as calibration curve for the calculation of the PGE2 concentrations from the HTRF ratio values.
From all mPGES enzyme assay the background is subtracted and the IC50 is calculated over a nonlinear regression with conventional software.
Background: Time-resolved FRET reads energy transfer from a long-lived donor to a nearby acceptor.

Another assay has as its target mPGES-1 in A549 cells (Homo sapiens (Human), UniProt O14684). The experiment in a line: A549 cell-based assay (PGE2 formation, 50% human serum). To be noted: IL-1β 5 ng/ml, 10 nM arachidonic acid, 20-24 h, read-out: mPGES-1 inhibitory effect IC50 in the cell assay. In a few lines: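 A549 cells in F-12K with 50% human serum were stimulated 20-24 h with 5 ng/ml IL-1β and 10 nM arachidonic acid in presence of compound or vehicle. PGE2 in the cell-free medium was measured by HTRF, normalised to vehicle (100%). IC50 from 6-8 point titrations.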

mPGES-1 in A549 cells, sequence (O14684 whole entry): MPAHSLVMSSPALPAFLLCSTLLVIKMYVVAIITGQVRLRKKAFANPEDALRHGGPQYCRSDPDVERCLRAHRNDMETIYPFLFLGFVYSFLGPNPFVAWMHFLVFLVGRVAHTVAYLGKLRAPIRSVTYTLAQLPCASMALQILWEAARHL
recombinant human mPGES-1, sequence (O14684 whole entry): as above

On to `Cn1c(Nc2c(Cl)ccc(CNC(=O)C(C)(C)C)c2Cl)nc2cc(C(=O)Nc3ccc(F)c(Cl)c3)c(N3CCC(C(F)(F)F)CC3)cc21` [Example 54, N-(3-Chloro-4-fluoro-phenyl)-2-{2,6-dichloro-3-[(2,2-dimethyl-propionylamino)-methyl]-phenylamino}-6-[4-trifluoromethyl-piperidinyl]-1-methyl-1H-benzimidazole-5-carboxylic acid amide], for which the figures for the IC50 (in assay [1]; at mPGES-1 in A549 cells) were 2 nM and 1.4 nM, respectively.
Taken in the same sequence, the figures for `Cn1c(Nc2c(Cl)ccc(CNC(=O)C(C)(C)C)c2Cl)nc2cc(C(=O)Nc3cccc(C(F)(F)F)n3)c(N3CCC(C(F)(F)F)CC3)cc21` [Example 55] were 2 nM and 5 nM.
The matching figures for `Cn1c(Nc2c(Cl)ccc(CNC(=O)C(C)(C)C)c2Cl)nc2cc(C(=O)Nc3ccc(Cl)c(F)c3)c(N3CCC(C(F)(F)F)CC3)cc21` [Example 56]: 1 nM and below 1 nM.
The matching figures for `Cn1c(Nc2c(Cl)ccc(CNC(=O)C(C)(C)C)c2Cl)nc2cc(C(=O)Nc3ccc(OC(F)(F)F)cc3)c(N3CCC(C(F)(F)F)CC3)cc21` [Example 57]: 1 nM and 1 nM.
In the case of `Cn1c(Nc2c(Cl)ccc(CNC(=O)C(C)(C)C)c2Cl)nc2cc(C(=O)NC3(c4ccc(F)cc4)CC3)c(N3CCC(C(F)(F)F)CC3)cc21` [Example 58], the IC50 in assay [1] was determined as 3 nM; at mPGES-1 in A549 cells, 1 nM.
As to `Cn1c(Nc2c(Cl)ccc(CNC(=O)C(C)(C)C)c2Cl)nc2cc(C(=O)NC3CCN(CC(F)(F)F)CC3)c(N3CCC(C(F)(F)F)CC3)cc21` [Example 59], the IC50 in assay [1] was 4 nM; at mPGES-1 in A549 cells, below 1 nM.
For `Cn1c(Nc2c(Cl)ccc(CNC(=O)C(C)(C)C)c2Cl)nc2cc(C(=O)NC3CCC(F)(F)CC3)c(N3CCC(C(F)(F)F)CC3)cc21` [Example 60], the IC50 (in assay [1]; on mPGES-1 in A549 cells) was 1 nM throughout.
In the case of `Cn1c(Nc2c(Cl)ccc(CNC(=O)C(C)(C)C)c2Cl)nc2cc(C(=O)N[C@H]3CC[C@@H](C(F)(F)F)CC3)c(N3CCC(C(F)(F)F)CC3)cc21` [Example 61], the IC50 in assay [1] is 2 nM; at mPGES-1 in A549 cells it was below 1 nM.
The matching figures for `Cn1c(Nc2c(Cl)ccc(CNC(=O)C(C)(C)C)c2Cl)nc2cc(C(=O)NCCC(F)(F)F)c(N3CCC(C(F)(F)F)CC3)cc21` [Example 62]: 2 nM and below 1 nM.
Taken in the same sequence, the figures for `Cn1c(Nc2c(Cl)ccc(CNC(=O)C(C)(C)C)c2Cl)nc2cc(C(=O)N[C@H]3CC[C@@H](C(F)(F)F)CC3)c(N3CC4CC4C3)cc21` (stereo partly drawn) [Example 63] were 3 nM and 6 nM.
Taken in the same sequence, the figures for `Cn1c(Nc2c(Cl)ccc(CNC(=O)C(C)(C)C)c2Cl)nc2cc(C(=O)Nc3ccc(OC(F)(F)F)cc3)c(N3CC4CC4C3)cc21` (stereo not drawn) [Example 64] were 3 nM and 2.6 nM.
Consider `Cn1c(Nc2c(Cl)ccc(CNC(=O)C(C)(C)C)c2Cl)nc2cc(C(=O)Nc3ccc(F)c(Cl)c3)c(N3CC4CC4C3)cc21` (stereo not drawn) [Example 65], for which the IC50 (in assay [1]; at mPGES-1 in A549 cells) was 1 nM each time.
Consider `Cn1c(Nc2c(Cl)ccc(CNC(=O)C(C)(C)C)c2Cl)nc2cc(C(=O)Nc3ccc(Cl)c(F)c3)c(N3CC4CC4C3)cc21` (stereo not drawn) [Example 66], for which the figures for the IC50 (in assay [1]; at mPGES-1 in A549 cells) were 3 nM and 1.6 nM, respectively.
`Cn1c(Nc2c(Cl)ccc(CNC(=O)C(C)(C)C)c2Cl)nc2cc(C(=O)N[C@H]3CC[C@H](C(F)(F)F)CC3)c(N3CCOCC3)cc21` [Example 67]: the IC50 came out at 4 nM in assay [1] and 2 nM on mPGES-1 in A549 cells.
Consider `Cn1c(Nc2c(Cl)ccc(CNC(=O)C(C)(C)C)c2Cl)nc2cc(C(=O)NCC(F)(F)C(F)(F)F)c(N3CCOCC3)cc21` [Example 68], for which the IC50 came to 4 nM in assay [1] and 1 nM at mPGES-1 in A549 cells.
On to `Cn1c(Nc2c(Cl)ccc(CNC(=O)C(C)(C)C)c2Cl)nc2cc(C(=O)N[C@H]3CC[C@H](C(F)(F)F)CC3)c(N3CCC(F)(F)CC3)cc21` [Example 69], for which the IC50 was 2 nM in assay [1] and 1 nM at mPGES-1 in A549 cells.
Regarding `Cn1c(Nc2c(Cl)ccc(CNC(=O)C(C)(C)C)c2Cl)nc2cc(C(=O)NCC(F)(F)C(F)(F)F)c(N3CCC(F)(F)CC3)cc21` [Example 70], the IC50 (in assay [1]; at mPGES-1 in A549 cells) was 2 nM in each case.
On to `CC(C)(C)C(=O)NCc1ccc(Cl)c(Nc2nc3cc(C(=O)NCC(F)(F)C(F)(F)F)c(N4CCOCC4)cc3n2CC(F)F)c1Cl` [Example 72], for which the IC50 (in assay [1]; at mPGES-1 in A549 cells) was 4 nM in each case.
`CC(C)(C)C(=O)NCc1ccc(Cl)c(Nc2nc3cc(C(=O)NCC(F)(F)C(F)(F)F)c(N4CCC(F)(F)CC4)cc3n2CC(F)F)c1Cl` [Example 74]: the IC50 in assay [1] worked out at 3 nM; on mPGES-1 in A549 cells, 4 nM.
Taken in the same sequence, the figures for `CC(C)(C)C(=O)NCc1ccc(Cl)c(Nc2nc3cc(C(=O)N[C@H]4CC[C@H](C(F)(F)F)CC4)c(N4CCC(C(F)(F)F)CC4)cc3n2CC(F)F)c1Cl` [Example 75] were 1 nM and 2 nM.
Taken in the same sequence, the figures for `CC(C)(C)C(=O)NCc1ccc(Cl)c(Nc2nc3cc(C(=O)NCC(F)(F)C(F)(F)F)c(N4CCC(C(F)(F)F)CC4)cc3n2CC(F)F)c1Cl` [Example 76] were 1 nM and 1 nM.
With `CC1(O)CCN(c2cc3c(cc2C(=O)N[C@H]2CC[C@H](C(F)(F)F)CC2)nc(Nc2c(Cl)ccc(CNC(=O)C(C)(C)F)c2Cl)n3CC(F)F)CC1` [Example 78], the figures for the half-maximal inhibitory concentration (IC50) (in assay [1]; at mPGES-1 in A549 cells) were 2 nM and below 1 nM, respectively.
Taken in the same sequence, the figures for `CC(C)(C)C(=O)NCc1ccc(Cl)c(Nc2nc3cc(C(=O)N[C@H]4CC[C@H](C(F)(F)F)CC4)c(N4CC[C@@H](F)C4)cc3n2CC(F)F)c1Cl` [Example 79] were 3 nM and 1 nM.
Take `CC(C)(F)C(=O)NCc1ccc(Cl)c(Nc2nc3cc(C(=O)N[C@H]4CC[C@H](C(F)(F)F)CC4)c(N4CCC(O)(C(F)(F)F)CC4)cc3n2CC(F)F)c1Cl` [Example 80]: the results for the IC50 (in assay [1]; at mPGES-1 in A549 cells) were 2 nM and 1 nM, respectively.
The matching figures for `Cn1c(Nc2c(Cl)ccc(CNC(=O)C(C)(C)C)c2Cl)nc2cc(C(=O)NCCC(F)(F)F)c(N3CCCC(C(F)(F)F)C3)cc21` (stereo not drawn) [Example 81, N-(3,3,3-Trifluoropropyl)-2-{2,6-dichloro-3-[(2,2-dimethyl-propionylamino)-methyl]-phenylamino}-6-[3-trifluoromethyl-piperidinyl]-1-methyl-1H-benzimidazole-5-carboxylic acid amide]: 4 nM and below 1 nM.
Consider `Cn1c(Nc2c(Cl)ccc(CNC(=O)C(C)(C)C)c2Cl)nc2cc(C(=O)N[C@H]3CC[C@H](C(F)(F)F)CC3)c(N3CCC(O)(C(F)(F)F)CC3)cc21` [Example 82], for which the results for the IC50 (in assay [1]; on mPGES-1 in A549 cells) were 3 nM and 1 nM, respectively.
The matching figures for `Cn1c(Nc2c(Cl)ccc(CNC(=O)C(C)(C)C)c2Cl)nc2cc(C(=O)N[C@H]3CC[C@H](C(F)(F)F)CC3)c(N3CCC(C)(O)C3)cc21` (stereo partly drawn) [Example 83]: 2 nM and 1.4 nM.
